Reference: patent US20120196019A1, “STEVIA SWEETENER WITH A SURFACTANT” (priority 2011, published 2012)
Like-named read-outs stand apart in the source and are kept apart here.

Columns and labels:
[1] = DLS size determination of 500 ppm RA solutions with gum Arabic (Example 5, FIGS. 7-9); assay type: physicochemical; conditions: conclusion of Example 5
Description: This example was for size determination.
The solutions noted below were filtered with a 0.45 μm membrane.
Measurements were obtained by DLS after the solution was filtered and allowed to equilibrate for six hours.
According to FIGS. 7 through 9, it was determined that: […]

[2] = cited from earlier work; for taste in sensory tests: 100% purity
[3] = Saturation of Reb A aqueous solution (Example 3); assay type: physicochemical; conditions: water
Description: Three concentrations of Reb A aqueous solutions were prepared: 500 ppm, 0.8% and 2.0%.
The 0.8% (by weight) is saturated.
The 2.0% (by weight) is over-saturated. After preparation, Reb A will continue to precipitate slowly and finally result in a 0.8% solution.

For `C=C1C[C@@]23CC[C@H]4[C@@](C)(CCC[C@@]4(C)C(=O)O[C@@H]4O[C@H](CO)[C@@H](O)[C@H](O)[C@H]4O)[C@@H]2CC[C@]1(O[C@@H]1O[C@H](CO)[C@@H](O)[C@H](O[C@@H]2O[C@H](CO)[C@@H](O)[C@H](O)[C@H]2O)[C@H]1O[C@@H]1O[C@H](CO)[C@@H](O)[C@H](O)[C@H]1O)C3` [Reb A, Rebaudioside A], which “size of micelles that the molecules tend to form in solution” value [1] is on record?
Its value is “above 1000 nm”.

What about the “stability of the solution (aggregation)” value [1] of the same molecule?
The value was “unstable”.

What about the “taste in sensory tests” value ([2]; 200 ppm aqueous solution) of the same molecule?
Its value is “cannot bring a perfect taste close to sugar”.

And the “taste in sensory tests” value ([2]; higher concentrations, for example 500 ppm)?
The value was “bitterness and aftertaste issues appear strongly”.

What about the “taste quality (increased sweetness and decreased bitterness)” value ([2]; Phytochemistry 68, 2007, 1855-1863) of the same molecule?
Its value is “better than stevioside”.

What about the “concentration of the saturated aqueous solution” value [3] of the same molecule?
Its value is 0.8 % (by weight).
